Data from patent US20190307783A1, “USE OF ANTIVIRALS TO INHIBIT PROTOZOAN VIRUSES” (priority 2016, published 2019).
Where two headings read alike, the source gives them in different places.

Columns and labels:
[1] = system: LRV1 (LgyLRV1 capsid levels); assay: microbe, parasite or virus in culture; conditions: for Effect on LRV1 (capsid) levels, in words: screen at 100 μM or maximum concentration permitted by solubility
From the text: Because LRV1 (like most Totiviridae) is not shed from the cell (33, 34), we developed a flow cytometric assay to measure intracellular LRV1 capsid levels on a per cell basis. To detect LRV1 we used binding to a rabbit anti-LgyLRV1 capsid antiserum (35) followed by detection with Alexa Fluor488-conjugated goat anti-rabbit IgG.
(§1) Parasites were inoculated at 2×10^5 cells/mL into Schneider's media lacking supplemental adenine.
For capsid flow cytometry, 10^7 cells were fixed at room temperature using 2% (wt/vol) paraformaldehyde (Thermo Fisher Scientific) in PBS for 2 minutes. They were then incubated in blocking buffer [10% (vol/vol) normal goat serum (Vector Laboratories, Burlingame, Calif., USA) and 0.2% TRITON X-100 in PBS] for 30 minutes at room temperature. Anti-LgyLRV1 capsid antibody (35) was added (1:20,000 dilution) and incubated at room temperature for 1 hour. After two washes with PBS, cells were resuspended in 200 μL PBS with Alexa Fluor488-labeled goat anti-rabbit IgG (Alexafluor, Invitrogen; 1:1,000; or Thermo Fisher Scientific; 1:2,000 dilution), and incubated 1 hour at room temperature. After two additional washes with PBS, cells were subjected to flow cytometry, gating for single cells using forward and side scatter and the data analyzed using […] software (BD Bioscience, San Jose, Calif., USA).

[2] = system: L. guyanensis (LgyLRV1+); assay: Drug-inhibition test: growth of LgyLRV1+ parasites; assay type: cell-based, Leishmania guyanensis; conditions: for Population doubling time: untreated ˜7.7 hours
Description: These compounds were examined for their ability to inhibit the growth of LgyLRV1^+ and virus levels by LRV1 capsid flow cytometry.
Most studies were performed using luciferase-expressing transfectants of L. guyanensis (MHOM/BR/78/M4147) described previously [LRV1^+ LgyM4147/SSU:IR2SAT-LUC(b)c3 and LRV^−LgyM4147/pX63HYG/SSU:IR2SAT-LUC(b)c4] (54); these lines are termed LgyLRV1^+ and LgyLRV1^−, respectively. Two strains of LRV1^+L. braziliensis were examined: LEM2780 (MHOM/BO/90/CS) and LEM3874 (MHOM/BO/99/IMT252 no. 3) (12). Parasites were grown in Schneider's media (Sigma Aldrich, St. Louis, Mo., USA) prepared according to the supplier's instructions with pH adjusted to 6.5 and supplemented with 0.76 mM hemin, 2 μg/mL biopterin, 50 U/mL penicillin, 50 μg/mL streptomycin, and 10% (vol/vol) heat-inactivated FBS. Cell concentrations were determined using a Coulter Counter ([…], Indianapolis, Ind., USA).
as §1

[3] = 48 h, read-out: Percent control (LRV1 capsid)
[4] = LgyLRV1+, tested at 100 μM, 2 days
[5] = Leishmania guyanensis, 48 h, LgyLRV1+, tested at 100 μM, growth after 2 days, read-out: Percent control (density)
[6] = LgyLRV1+, tested at 100 μM, growth after 2 days
[7] = LgyLRV1+, tested at 50 μM, 2 days
[8] = LgyLRV1+, tested at 50 μM, growth after 2 days
[9] = LgyLRV1+, tested at 40 μM, 2 days
[10] = Leishmania guyanensis, 48 h, LgyLRV1+, tested at 40 μM, growth after 2 days, read-out: Percent control (density)
[11] = LgyLRV1+, tested at 40 μM, growth after 2 days
[12] = Leishmania guyanensis, 48 h, read-out: Percent control (density)
[13] = LgyLRV1+, tested at 1 μM, 2 days
[14] = Leishmania guyanensis, 48 h, LgyLRV1+, tested at 1 μM, growth after 2 days, read-out: Percent control (density)
[15] = LgyLRV1+, tested at 1 μM, growth after 2 days

SMILES	activity at 100 µM [1, 3] [%]	LRV1 capsid (geometric mean FU) [1, 4] [FU]	activity at 100 µM [2, 5] [%]	Density (cells/mL) [2, 6] [cells/mL]	also measured
C[C@H]1O[C@@H](n2cc(F)c(=O)[nH]c2=O)[C@H](O)[C@@H]1O [5-Fluoro-5′-deoxyuridine]	88	234	28	4.71E+6	
O=c1[nH]cc(F)c(=O)[nH]1 [5-Fluorouracil]	193		5	9.05E+5	LRV1 capsid (geometric mean FU) [1]: 512 FU
O=c1[nH]cnc2nn[nH]c12 [8-Azahypoxanthine]	95	251	77	1.29E+7	
Nc1nc2c(ncn2COCCO)c(=O)[nH]1 [Acyclovir]					activity at 120 µM [1, 3]: 259%; activity at 120 µM ([2]; Leishmania guyanensis, 48 h, LgyLRV1+, tested at 120 μM, growth after 2 days, read-out: Percent control (density)): 51%; Density (cells/mL) ([2]; LgyLRV1+, tested at 120 μM, growth after 2 days): 8.55E+6 cells/mL
Oc1ncnc2[nH]ncc12 [Allopurinol]	34	90	2	4.06E+5	Inhibition of LRV1 capsid levels ([1]; highest concentration tested, 48-hour propagation (FIG. 18A)): 60%; Inhibition of L. guyanensis growth ([2]; highest concentration tested, 48-hour propagation, growth rate (FIG. 18A)): 30%
CCCNC(=O)[C@H]1O[C@@H]1C(=O)N[C@H](C(=O)N1CCC[C@H]1C(=O)OC)[C@@H](C)CC [CA-074-Me, CA-074 Me]					LRV1 capsid (geometric mean FU) [1, 7]: 83 FU; Percent control (LRV1 capsid) [1, 7]: 31 Percent control; Effect on LRV1 (capsid) levels, in words ([1]; 2 days): only minimal effects; Density (cells/mL) [2, 8]: 1.00E+07 cells/mL; Percent control (density) [2, 8]: 60 Percent control; Effect on L. guyanensis growth, in words ([2]; screen at 100 μM or maximum concentration permitted by solubility, 2 days): no effects
C[C@@H]1C[C@@H]([C@H](O)CC2CC(=O)NC(=O)C2)C(=O)[C@@H](C)C1 [CHX, cycloheximide]					LRV1 capsid levels under growth-inhibiting agent, in words ([1]; LgyLRV1+, 48-hour propagation in increasing concentrations): unaffected; Population doubling time ([2]; L. guyanensis at 10 nM): 11.2 h; Population doubling time ([2]; L. guyanensis at 100 nM): 44.7 h
CCCC(=O)O[C@H]1CN2CC[C@H](O)[C@@H]2[C@@H](O)[C@@H]1O [Celgosivir, 6-O-butanoyl castanospermine]					activity at 10 µM [1, 3]: 47%; LRV1 capsid (geometric mean FU) ([1]; LgyLRV1+, tested at 10 μM, 2 days): 124 FU; activity at 10 µM ([2]; Leishmania guyanensis, 48 h, LgyLRV1+, tested at 10 μM, growth after 2 days, read-out: Percent control (density)): 65%; Density (cells/mL) ([2]; LgyLRV1+, tested at 10 μM, growth after 2 days): 1.09E+7 cells/mL
CN(C)c1ncnc2c1ncn2[C@@H]1O[C@H](CO)[C@@H](O)[C@H]1O [Chembridge 5790592, N,N-dimethyl adenosine]	108		1	1.00E+5	LRV1 capsid (geometric mean FU) [1]: 287 FU
Nc1ccn(C[C@@H](CO)OCP(=O)(O)O)c(=O)n1 [Cidofovir]					activity at 40 µM [1, 3]: 240%; LRV1 capsid (geometric mean FU) [1, 9]: 637 FU; activity at 40 µM [2, 10]: 59%; Density (cells/mL) [2, 11]: 9.99E+6 cells/mL
O=c1nc[nH]c(=O)[nH]1 [Compound 5-Azauracil, 5-Azauracil]	95				LRV1 capsid (geometric mean FU) [1]: 252 FU; Density (cells/mL) [2]: 1.13E+7 cells/mL; activity at 100 µM [2, 12]: 67%
O=c1cn[nH]c(=O)[nH]1 [Compound 6-Azauracil, 6-Azauracil]	102		71	1.20E+7	LRV1 capsid (geometric mean FU) [1]: 271 FU
Nc1nc2nn[nH]c2c(=O)[nH]1 [Compound 8-Azaguanine, 8-Azaguanine]	100		34	5.68E+6	LRV1 capsid (geometric mean FU) [1]: 264 FU
[N-]=[N+]=N[C@]1(CO)O[C@@H](n2ccc(N)nc2=O)[C@H](O)[C@@H]1O [Compound R-1479, 4′-Azido cytidine]	43	114	73	1.23E+7	
NC(=O)c1nc(F)c[nH]c1=O [Compound T-705, Favipiravir]	60	161	67	1.13E+7	
O=c1[nH]cnc2c1ncn2[C@H]1CC[C@@H](CO)O1 [Didanosine]	68	182		1.80E+7	activity at 100 µM [2, 12]: 107%
C=C1[C@H](CO)[C@@H](O)C[C@@H]1n1cnc2c(=O)[nH]c(N)nc21 [Entecavir]	45	119	105	1.77E+7	
O=C(O)P(=O)(O)O [Foscarnet, Phosphonoformic acid]	61	162	56	9.50E+6	Effect on LRV1 (capsid) levels, in words ([1]; 2 days): not significantly affected
Nc1nc(O)c2ncn(COC(CO)CO)c2n1 [Ganciclovir]					activity at 40 µM [1, 3]: 75%; LRV1 capsid (geometric mean FU) [1, 9]: 198 FU; activity at 40 µM [2, 10]: 58%; Density (cells/mL) [2, 11]: 9.78E+6 cells/mL
COc1c(C)c2c(c(O)c1C/C=C(\C)CCC(=O)O)C(=O)OC2 [Mycophenolic acid]					activity at 1 µM [1, 3]: 90%; LRV1 capsid (geometric mean FU) [1, 13]: 238 FU; activity at 1 µM [2, 14]: 3%; Density (cells/mL) [2, 15]: 4.55E+5 cells/mL
C#C[C@@]1(O)[C@H](O)[C@@H](CO)O[C@H]1n1ccc2c(N)ncnc21 [NITD008, 7-(2-Ethynyl-β-D-ribofuranosyl)-7H-pyrrolo[2,3-d]pyrimidine-4-amine]					activity at 1 µM [1, 3]: 37%; LRV1 capsid (geometric mean FU) [1, 13]: 98 FU; Effect on LRV1 (capsid) levels, in words ([1]; 2 days): little effect on LRV1; activity at 1 µM [2, 14]: 61%; Density (cells/mL) [2, 15]: 1.02E+7 cells/mL
CC(C)OC(=O)[C@H](C)N[P@](=O)(OC[C@H]1O[C@@H](n2ccc(=O)[nH]c2=O)[C@](C)(F)[C@@H]1O)Oc1ccccc1 [PSI-7977, 2-((5-(2,4-dioxo-3,4-dihydro-2H-pyrimidin-1-yl)-4-fluoro-3-hydroxy-4-methyltetrahydrofuranyl-2-methoxy)phenoxyphosphorylamino) propionic acid isopropyl ester]	61	163	74	1.25E+7	Effect on LRV1 (capsid) levels, in words ([1]; 2 days): little effect on LRV1
NC(=O)c1ncn([C@@H]2O[C@H](CO)[C@@H](O)[C@H]2O)n1 [Ribavirin]	61	162	13	2.21E+6	
Cc1cn([C@H]2C=C[C@@H](CO)O2)c(=O)[nH]c1=O [Stavudine]	83	220	95	1.60E+7	
[H]/N=C(/N)NS(=O)(=O)c1ccc(N)cc1 [Sulfaguanidine]	98	260	68	1.15E+7	
C[C@H](Cn1cnc2c(N)ncnc21)OCP(=O)(O)O.O [Tenofovir, Tenofovir monohydrate]		206		8.90E+6	Percent control (LRV1 capsid) [1, 4]: 78 Percent control; Percent control (density) [2, 6]: 53 Percent control
Cc1cn([C@H]2C[C@H](N=[N+]=[N-])[C@@H](CO)O2)c(=O)[nH]c1=O [Zidovudine]	74	196		1.81E+7	activity at 100 µM [2, 12]: 107%
